Among the data in patent publication US8211935B2, “Heterocyclic derivatives for modulation of calcium channels” (Vertex Pharmaceuticals Incorporated, priority 2004, dated 2012) are IC50 values, retold here.

T1 sequence (Q00975 whole entry): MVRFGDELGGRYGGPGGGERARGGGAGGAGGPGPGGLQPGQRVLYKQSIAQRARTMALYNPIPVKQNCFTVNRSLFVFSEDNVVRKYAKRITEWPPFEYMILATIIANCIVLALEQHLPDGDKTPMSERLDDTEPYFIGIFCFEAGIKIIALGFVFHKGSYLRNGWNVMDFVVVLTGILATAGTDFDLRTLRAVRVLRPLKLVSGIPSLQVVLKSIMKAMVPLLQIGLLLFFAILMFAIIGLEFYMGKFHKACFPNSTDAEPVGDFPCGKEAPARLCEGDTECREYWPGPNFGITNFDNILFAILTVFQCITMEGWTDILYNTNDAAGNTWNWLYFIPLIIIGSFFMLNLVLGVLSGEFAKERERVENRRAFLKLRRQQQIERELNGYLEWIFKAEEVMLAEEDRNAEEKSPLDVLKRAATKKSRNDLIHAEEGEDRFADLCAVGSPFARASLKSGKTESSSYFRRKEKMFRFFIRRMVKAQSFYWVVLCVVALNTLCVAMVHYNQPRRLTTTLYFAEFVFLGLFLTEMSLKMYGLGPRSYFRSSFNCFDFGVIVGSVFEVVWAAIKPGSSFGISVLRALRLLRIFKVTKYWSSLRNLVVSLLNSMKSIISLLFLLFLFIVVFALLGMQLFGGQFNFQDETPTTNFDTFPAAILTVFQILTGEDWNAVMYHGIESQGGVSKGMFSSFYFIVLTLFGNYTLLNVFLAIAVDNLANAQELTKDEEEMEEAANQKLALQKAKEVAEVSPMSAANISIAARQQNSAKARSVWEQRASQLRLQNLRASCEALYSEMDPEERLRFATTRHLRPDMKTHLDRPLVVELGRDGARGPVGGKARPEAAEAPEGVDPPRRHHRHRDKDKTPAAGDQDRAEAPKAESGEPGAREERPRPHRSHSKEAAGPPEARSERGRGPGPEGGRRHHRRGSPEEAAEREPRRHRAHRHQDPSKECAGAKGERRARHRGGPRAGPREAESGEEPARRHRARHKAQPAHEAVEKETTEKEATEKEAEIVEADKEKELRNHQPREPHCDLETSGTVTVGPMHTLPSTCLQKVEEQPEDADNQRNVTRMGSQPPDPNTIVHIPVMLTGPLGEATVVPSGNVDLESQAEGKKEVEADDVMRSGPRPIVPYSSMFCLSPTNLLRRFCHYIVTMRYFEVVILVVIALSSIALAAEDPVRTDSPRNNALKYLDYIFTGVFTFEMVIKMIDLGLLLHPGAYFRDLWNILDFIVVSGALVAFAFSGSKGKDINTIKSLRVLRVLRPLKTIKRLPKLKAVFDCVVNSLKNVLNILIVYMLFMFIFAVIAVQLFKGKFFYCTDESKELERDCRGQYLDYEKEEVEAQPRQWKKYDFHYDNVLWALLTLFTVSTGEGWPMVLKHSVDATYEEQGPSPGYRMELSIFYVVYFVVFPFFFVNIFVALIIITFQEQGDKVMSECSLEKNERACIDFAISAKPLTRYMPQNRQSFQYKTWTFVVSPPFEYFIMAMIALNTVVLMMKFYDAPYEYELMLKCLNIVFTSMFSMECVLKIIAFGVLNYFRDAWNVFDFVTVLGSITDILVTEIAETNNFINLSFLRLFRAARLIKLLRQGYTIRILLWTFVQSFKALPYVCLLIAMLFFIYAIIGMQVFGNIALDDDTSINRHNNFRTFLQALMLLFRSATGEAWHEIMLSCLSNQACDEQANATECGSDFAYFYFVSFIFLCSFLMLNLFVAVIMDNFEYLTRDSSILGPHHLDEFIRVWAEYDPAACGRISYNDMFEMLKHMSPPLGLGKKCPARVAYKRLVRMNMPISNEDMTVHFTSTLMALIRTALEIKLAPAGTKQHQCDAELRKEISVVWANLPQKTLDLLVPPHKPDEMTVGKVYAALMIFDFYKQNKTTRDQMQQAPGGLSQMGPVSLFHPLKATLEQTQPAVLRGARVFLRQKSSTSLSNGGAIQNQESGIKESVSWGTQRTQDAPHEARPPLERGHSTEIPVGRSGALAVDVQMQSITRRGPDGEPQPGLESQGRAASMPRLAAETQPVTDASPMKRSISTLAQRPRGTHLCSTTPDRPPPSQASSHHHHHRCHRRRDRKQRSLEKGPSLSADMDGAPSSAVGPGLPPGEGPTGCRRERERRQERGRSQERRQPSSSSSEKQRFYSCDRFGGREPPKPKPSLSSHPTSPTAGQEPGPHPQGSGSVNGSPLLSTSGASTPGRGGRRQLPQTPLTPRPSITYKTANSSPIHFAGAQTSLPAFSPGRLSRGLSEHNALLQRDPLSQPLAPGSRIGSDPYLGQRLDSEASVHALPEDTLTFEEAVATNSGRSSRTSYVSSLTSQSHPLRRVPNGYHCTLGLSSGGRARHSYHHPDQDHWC
T1 sequence (P54284 whole entry partner): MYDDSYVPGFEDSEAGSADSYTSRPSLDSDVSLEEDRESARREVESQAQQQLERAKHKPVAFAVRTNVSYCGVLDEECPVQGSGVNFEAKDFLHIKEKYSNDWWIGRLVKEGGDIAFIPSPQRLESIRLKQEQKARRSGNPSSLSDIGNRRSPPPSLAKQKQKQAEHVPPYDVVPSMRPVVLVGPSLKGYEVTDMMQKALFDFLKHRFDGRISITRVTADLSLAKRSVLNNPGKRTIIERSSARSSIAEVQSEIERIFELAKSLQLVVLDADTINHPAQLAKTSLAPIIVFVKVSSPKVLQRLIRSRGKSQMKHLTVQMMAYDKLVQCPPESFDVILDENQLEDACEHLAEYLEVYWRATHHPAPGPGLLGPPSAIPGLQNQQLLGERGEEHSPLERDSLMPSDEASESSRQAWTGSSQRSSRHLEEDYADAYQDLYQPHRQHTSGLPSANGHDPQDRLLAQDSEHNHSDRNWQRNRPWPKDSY
T1 sequence (P54289 25-946 partner limits assumed): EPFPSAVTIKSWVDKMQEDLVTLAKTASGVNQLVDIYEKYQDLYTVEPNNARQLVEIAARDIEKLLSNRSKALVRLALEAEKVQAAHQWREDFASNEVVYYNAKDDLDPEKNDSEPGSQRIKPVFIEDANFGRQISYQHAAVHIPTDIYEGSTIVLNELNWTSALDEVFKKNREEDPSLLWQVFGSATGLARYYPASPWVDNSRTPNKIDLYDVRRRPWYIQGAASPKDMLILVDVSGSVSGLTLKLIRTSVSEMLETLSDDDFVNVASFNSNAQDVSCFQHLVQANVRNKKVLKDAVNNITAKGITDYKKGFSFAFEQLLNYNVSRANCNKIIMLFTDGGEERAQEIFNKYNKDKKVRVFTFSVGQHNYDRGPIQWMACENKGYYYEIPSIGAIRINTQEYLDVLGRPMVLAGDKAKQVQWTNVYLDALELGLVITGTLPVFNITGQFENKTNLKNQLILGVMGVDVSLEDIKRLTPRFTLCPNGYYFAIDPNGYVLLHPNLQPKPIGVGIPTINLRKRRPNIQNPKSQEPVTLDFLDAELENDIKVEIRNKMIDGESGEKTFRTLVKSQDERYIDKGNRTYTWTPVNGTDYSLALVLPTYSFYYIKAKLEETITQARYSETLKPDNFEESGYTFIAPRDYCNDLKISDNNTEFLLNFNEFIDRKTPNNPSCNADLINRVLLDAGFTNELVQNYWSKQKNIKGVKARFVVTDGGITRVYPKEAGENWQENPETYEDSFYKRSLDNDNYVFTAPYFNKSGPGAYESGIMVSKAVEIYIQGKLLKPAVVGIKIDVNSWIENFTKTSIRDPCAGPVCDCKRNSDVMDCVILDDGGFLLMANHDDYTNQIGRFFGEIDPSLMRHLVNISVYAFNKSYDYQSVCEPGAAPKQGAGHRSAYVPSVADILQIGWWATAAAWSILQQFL
T1 sequence (P54289 947-1103 partner limits assumed): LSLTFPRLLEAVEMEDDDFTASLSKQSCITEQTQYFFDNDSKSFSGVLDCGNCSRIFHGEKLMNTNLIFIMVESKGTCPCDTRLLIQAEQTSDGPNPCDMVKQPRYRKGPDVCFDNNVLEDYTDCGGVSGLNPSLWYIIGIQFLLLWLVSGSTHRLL

One assay addresses T1, CaV2.2 (Homo sapiens, UniProt Q00975).
T1 construct: expressed in transfected cells; host or cells: HEK293
Kind of assay: VIPR optical membrane potential assay with electrical stimulation. In kind it is cell-based.
Conditions: not given
An outline of the steps: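 HEK293 cells stably expressing CaV2.2, stained with CC2-DMPE (10 μM final) and oxonol voltage-sensitive dyes, compound added with BaCl2. Membrane potential response evoked by 3-5 s electrical stimulation. Read as background-subtracted 460/580 nm emission ratio, response R=Rf/Ri, normalized to mibefradil positive and no-drug negative controls.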
In the case of `Cc1c(C(=O)N2CCC3(CC2)OCCO3)[nH]c2ccc(S(=O)(=O)N3CC(C)CC(C)C3)cc12` (centres unmarked) [compound 253], the IC50 is less than 5 µM.

As to `CCN(CC)S(=O)(=O)c1ccc2oc(C(=O)N3CCC4(CC3)OCCO4)c(C)c2c1` [compound 356], the IC50 was less than 20 µM.

The assay is the same for the next values; noted with them: Table 3, biological assay data; read-out: IC50.
On to `Cc1c(C(=O)NC2CC2)oc2ccc(S(=O)(=O)Nc3ccccn3)cc12` [compound 50], for which the IC50 is less than 20 µM.

In the case of `CN(c1ccc2[nH]c(C(=O)NC3CC3)cc2c1)S(=O)(=O)c1ccccc1` [compound 312], the IC50 was 5 to 20 µM.

In the case of `CCNC(=O)c1[nH]c2ccc(S(=O)(=O)N3CCC(C)CC3)cc2c1C` [compound 301], the IC50 was in the range of 5 to 20 µM.

Consider `CCOC(=O)N1CCN(C(=O)c2oc3ccc(S(=O)(=O)N4CCCCCC4)cc3c2C)CC1` [compound 211], for which the IC50 is less than 5 µM.

As to `Cc1c(C(=O)N2CCCC2)oc2ccc(S(=O)(=O)N3CCOCC3)cc12` [compound 26], the IC50 was less than 20 µM.

Consider `Cc1c(C(=O)NCc2ccccc2)oc2ccc(S(=O)(=O)N3CCCCCC3)cc12` [compound 44], for which the IC50 fell in the range of 5 to 20 µM.

Turning to `Cc1c(C(=O)NC2CCCCC2)[nH]c2ccc(S(=O)(=O)N3CC(C)CC(C)C3)cc12` (centres unmarked) [compound 331], the IC50 was less than 5 µM.

As for `Cc1c(C(=O)NC2CC2)oc2ccc(S(=O)(=O)Nc3ccccc3)cc12` [compound 224], the IC50 lay in the range of 5 to 20 µM.

For `CC1CC(C)CN(S(=O)(=O)c2ccc3c(c2)cc(C(=O)N2CCCCC2)n3S(=O)(=O)C(C)C)C1` (centres unmarked) [compound 470], the IC50 is 5 to 20 µM.

For `O=C(NCCc1ccccc1)c1cc2cc(S(=O)(=O)N3CCCCCC3)ccc2[nH]1` [compound 248], the IC50 was less than 5 µM.

Regarding `CCN(CC)C(=O)c1cc2cc(S(=O)(=O)N3CC(C)CC(C)C3)ccc2[nH]1` (centres unmarked) [compound 196], the IC50 is less than 5 µM.

Consider `CCN(CC)S(=O)(=O)c1ccc2oc(C(=O)N3CCc4ccccc4C3)c(C)c2c1` [compound 85], for which the IC50 was less than 5 µM.

As for `CC1CCCN(C(=O)c2cc3cc(S(=O)(=O)N4CC(C)CC(C)C4)ccc3[nH]2)C1` (centres unmarked) [compound 171], the IC50 was less than 5 µM.

Turning to `Cc1c(C(=O)NCCCc2ccccc2)oc2ccc(S(=O)(=O)N3CC(C)CC(C)C3)cc12` (centres unmarked) [compound 56], the IC50 is less than 5 µM.

`Cc1c(C(=O)NCCCN2CCCC2)oc2ccc(S(=O)(=O)N3CC(C)CC(C)C3)cc12` (centres unmarked) [compound 180]: the IC50 is less than 5 µM.

As to `Cc1c(C(=O)N2CCOCC2)oc2ccc(S(=O)(=O)N3CCCCC3)cc12` [compound 372], the IC50 was less than 20 µM.

Turning to `Cc1c(C(=O)NC2CC2)oc2ccc(S(=O)(=O)NCc3ccccc3)cc12` [compound 237], the IC50 is less than 20 µM.

With `Cc1c(C(=O)N2CCN(C)CC2)[nH]c2ccc(S(=O)(=O)N3CC(C)CC(C)C3)cc12` (centres unmarked) [compound 160], the IC50 is 5 to 20 µM.

Regarding `CC(C)NC(=O)c1cc2cc(S(=O)(=O)N3CCCCCC3)ccc2[nH]1` [compound 400], the IC50 was less than 20 µM.

Turning to `Cc1c(C(=O)NC2CCCC2)oc2ccc(S(=O)(=O)N3CCCCCC3)cc12` [compound 294], the IC50 was less than 5 µM.

Regarding `Cc1c(C(=O)NC(C)C)oc2ccc(S(=O)(=O)N3CCC(F)(F)CC3)cc12` [compound 204], the IC50 lay within 5 to 20 µM.

As for `CCN(CC)S(=O)(=O)c1ccc2oc(C(=O)NC3CCCC3)c(C)c2c1` [compound 87], the IC50 was less than 5 µM.

Regarding `CCCCN(C)C(=O)c1[nH]c2ccc(S(=O)(=O)N3CC(C)CC(C)C3)cc2c1C` (centres unmarked) [compound 420], the IC50 is less than 5 µM.

On to `Cc1c(C(=O)NC2CC2)oc2ccc(S(=O)(=O)N(CCN(C)C)Cc3ccccc3)cc12` [compound 24], for which the IC50 is less than 20 µM.

For `CCN(CC)S(=O)(=O)c1ccc2oc(C(=O)NCCC3CCOCC3)c(C)c2c1` [compound 322], the IC50 is less than 20 µM.

Consider `O=C(NC1CC1)c1cc2cc(N(C3CCCCC3)S(=O)(=O)c3ccccc3)ccc2[nH]1` [compound 270], for which the IC50 was in the range of 5 to 20 µM.

On to `CC1CC(C)CN(S(=O)(=O)c2ccc3[nH]c(C(=O)NC4CCCCC4)cc3c2)C1` (centres unmarked) [compound 329], for which the IC50 was in the range of 5 to 20 µM.

In the case of `Cc1c(C(=O)NC2CC2)oc2ccc(S(=O)(=O)N(C)c3ccccn3)cc12` [compound 261], the IC50 was less than 20 µM.

Consider `O=C(NC1CCCC1)c1cc2cc(S(=O)(=O)N3CCCCCC3)ccc2o1` [compound 304], for which the IC50 was less than 5 µM.

Consider `Cc1c(C(=O)NCc2ccccc2)oc2ccc(S(=O)(=O)N3CCOCC3)cc12` [compound 267], for which the IC50 was less than 20 µM.

In the case of `COc1ccc(CNC(=O)c2oc3ccc(S(=O)(=O)N4CCC(C)CC4)cc3c2C)cc1` [compound 282], the IC50 is less than 5 µM.

Consider `Cc1c(C(=O)NC(C)C)oc2ccc(S(=O)(=O)N3CCC(F)CC3)cc12` [compound 157], for which the IC50 is 5 to 20 µM.

Turning to `Cc1c(C(=O)NC(C)C)[nH]c2ccc(S(=O)(=O)N3CCC(C)CC3)cc12` [compound 116], the IC50 fell in the range of 5 to 20 µM.

For the compound `CN(Cc1ccccc1)C(=O)c1cc2cc(S(=O)(=O)N3CCCCCC3)ccc2[nH]1` [compound 416], the IC50 was less than 5 µM.

Consider `Cc1c(C(=O)N2CCN(C)CC2)oc2ccc(S(=O)(=O)N3CCCCCC3)cc12` [compound 152], for which the IC50 lay within 5 to 20 µM.

`Cc1c(C(=O)NC(C)C)oc2ccc(S(=O)(=O)N3CCCCCC3)cc12` [compound 110]: the IC50 lay in the range of 5 to 20 µM.

In the case of `Cc1c(C(=O)NC2CCCC(C)C2C)oc2ccc(S(=O)(=O)N3CCOCC3)cc12` (centres unmarked) [compound 187], the IC50 was 5 to 20 µM.

For the compound `O=C(NCC1CCOCC1)c1cc2cc(S(=O)(=O)N3CCCCCC3)ccc2[nH]1` [compound 418], the IC50 was less than 5 µM.

In the case of `CC1CC(C)CN(S(=O)(=O)c2ccc3oc(C(=O)N(C)Cc4ccccc4)cc3c2)C1` (centres unmarked) [compound 430], the IC50 was less than 5 µM.

Consider `Cc1c(C(=O)N2CCC(C)CC2)[nH]c2ccc(S(=O)(=O)N3CCCCCC3)cc12` [compound 342], for which the IC50 was less than 5 µM.

Consider `CCCCN(C)C(=O)c1oc2ccc(S(=O)(=O)N3CC(C)CC(C)C3)cc2c1C` (centres unmarked) [compound 321], for which the IC50 is less than 5 µM.

`Cc1c(C(=O)NC2CC2)oc2ccc(S(=O)(=O)Nc3ncns3)cc12` [compound 316]: the 50% inhibitory concentration (IC50) was less than 20 µM.

With `Cc1c(C(=O)NCc2ccccc2)oc2ccc(S(=O)(=O)N3CCC(C)CC3)cc12` [compound 189], the IC50 was in the range of 5 to 20 µM.

With `Cc1c(C(=O)N2CCCCCC2)oc2ccc(S(=O)(=O)N3CC(C)CC(C)C3)cc12` (centres unmarked) [compound 330], the IC50 is less than 5 µM.

Consider `CC1CCN(S(=O)(=O)c2ccc3oc(C(=O)NC4CCCC4)cc3c2)CC1` [compound 119], for which the IC50 is less than 5 µM.

As to `Cc1c(C(=O)NCCN2CCOCC2)oc2ccc(S(=O)(=O)N3CCC(C)CC3)cc12` [compound 129], the IC50 was 5 to 20 µM.

Turning to `CCN1CCN(C(=O)c2oc3ccc(S(=O)(=O)N4CCCCCC4)cc3c2C)CC1` [compound 70], the IC50 lay in the range of 5 to 20 µM.

Regarding `CC1CC(C)CN(S(=O)(=O)c2ccc3oc(C(=O)NCC4CCOCC4)cc3c2)C1` (centres unmarked) [compound 327], the IC50 is less than 5 µM.

Turning to `Cc1c(C(=O)NCCN2CCOCC2)oc2ccc(S(=O)(=O)N3CCCCCC3)cc12` [compound 114], the IC50 is 5 to 20 µM.

Take `Cc1c(C(=O)NCCCc2ccccc2)oc2ccc(S(=O)(=O)N3CCCCCC3)cc12` [compound 94]: the IC50 was 5 to 20 µM.

For the compound `Cc1c(C(=O)N2CCC(C)CC2)oc2ccc(S(=O)(=O)N3CCCCCC3)cc12` [compound 307], the concentration for half-maximal inhibition (IC50) is less than 5 µM.
